These results are taken from US8865653B2, “Method of treatment for immunogenic treatment resistant cancer” (Institut Gustave Roussy, priority 2010, dated 2014).

The subject of data set [1] is CT26 (ATG5 or ATG7 knock down, WT). Put plainly: Chemotherapy of established autophagy-deficient CT26 tumors ± apyrase inhibitor. It counts as in vivo, mice. The procedure: One million CT26 knock down with small interfering RNA specific for ATG5 or ATG7 or controls WT were treated with the anthracyclin mitoxanthrone (MTX) at 8 days post-implantation in one flank of a naïve animal (BALB/C mouse). […] Monitoring of tumor growth was recorded with a caliper (product of perpendicular diameters) and is depicted for 5 mice/group. Statistical analyses were performed with Anova test (Fisher's exact method) with significant results at p<0.05.

In data set [2] the test system is CT26 (siATG5, siATG6, siATG7). Nature of the data set: Prophylactic immunization with autophagy-deficient dying CT26 cells ± apyrase inhibitor. Format: in vivo. The settings on record: anthracycline-treated cells injected s.c., immunocompetent mice. The procedure:
One million CT26 knock down with small interfering RNA specific for ATG5, ATG6 (Beclin 1 BCN1), or ATG7 or controls siCO were treated with the anthracyclin mitoxanthrone (MTX) for 18 hours, washed and inoculated in one flank of a naïve animal (BALB/C mouse). Positive controls are CT26 treated with MTX and negative controls are CT26 treated with PBS. Ten days later, mice were rechallenged with 3× the minimal tumorigenic dose of live CT26 cells on the opposite flank and monitoring of tumor growth was recorded with a caliper (product of perpendicular diameters). The % of tumor free animals are shown in the graph and the number of animals per group is indicated (n=20). Statistical analyses were performed with Anova test (Fisher's exact method) with significant results at p<0.05.
Idem as in FIG. 40 but the dying cells (siCO or siATG7) were admixed (or not) with apyrase inhibitors (AI) (apyrases are enzymes hydrolyzing ATP in the extracellular milieu) and/or suramine (SUR) or oxidized ATP (OXY), both inhibitors of purinergic receptors at the conventional dosing (previously reported). The % of tumor free animals are shown in the graph and the number of animals per group is indicated (n=20). Statistical analyses were performed with Anova test (Fisher's exact method) with significant results at p<0.05.

In data set [3] the target is AHR (Homo sapiens, UniProt P35869). Particulars: pure antagonist of AHR; cited from earlier work.
The test system of data set [4] is MCA205 sarcoma. Nature of the data set: Anthracycline chemotherapy of established MCA205 sarcoma (intratumoral DX). It counts as in vivo, mice. Particulars: CH-223191 daily i.p. for 4 days from day of DX. The procedure: 0.8 million MCA205 or CT26 or TS/A tumor cells were inoculated subcutaneously near the thigh into C57Bl/6 (H-2^b) or BALB/c (H-2^d) mice. Anthracyclines-based chemotherapy was performed in MCA205 and CT26 models by intratumoral injecting DX (2 mM, […]) when tumors reached the size 25-40 mm^2. Radiotherapy was performed by local X-ray irradiation (10 Gy, RT250, Phillips) at the unshielded tumor area when TS/A tumor reached the size 40-60 mm^2.

Data set [5] relates to MCA205. Put plainly: Pro-apoptotic effect on MCA205, DiOC6(3) fluorescence. Format: cell-based, mouse. Particulars: alone or in combination with anthracyclines (DX, MTX). On the procedure: (B) The impact of AHR pharmacological inhibitor CH-223191 on pro-apoptotic effect of DX or MTX against MCA205 was measured. A reduction in mitochondrial membrane potential indicated by decreased DiOC6(3) fluorescence was used to show cell apoptosis. The experiment was performed twice with identical results.

Data set [6] concerns U2OS cells. Put plainly: US Drug library screen: CRT-GFP, HMGB1-GFP, quinacrine. Particulars: 1 μM, 4 h / 24 h / 16 h.
Data set [7] deals with U2OS cells stably expressing CRT-GFP. Put plainly: CRT-GFP redistribution (granularity, nuclear shape) by automated microscopy; ICCB library screen. It counts as cell-based, human. Particulars: for CRT-GFP granularity / CRT exposure in library screen in the presence vs absence of CDDP: ICCB library, 4 h, with CDDP. The procedure:
The data is depicted as mean±s.e.m. of quadruplicates from a representative experiment. (C) Immunofluorescene was conducted on CRT-GFP expressing cells by means of staining with anti-CRT antibody and subsequent confocal image acquisition. (D) CRT has been cloned in frame n-terminal to a HaloTag® sequence followed by a KDEL ER retention signal. (E) The impermeable HaloTag® ligand forms covalent bonds exclusively with surface exposed HaloTag®-CRT fusion protein, whereas intracellular HaloTag®-CRT remains undetected.
Compounds from the ICCB known bioactive compounds library have been tested for their capacity to induce CRT-exposure. […] The cells were incubated for 4 h and were acquired by means of automated microscopy. The data is depicted as dot plots and representative images (B).
After washing with PBS 4 viewfields per well were acquired by means of a BD pathway 855 automated microscope.

Data set [8] deals with CT26 overexpressing LC3-GFP. Put plainly: Induction of autophagy in vivo, LC3-GFP redistribution. Particulars: i.v., tumors withdrawn 48 hours post-therapy. Further details: species or system mice. The procedure:
After 8 days of tumor implantation (CT26 mouse colon cancer genetically modified to overexpress LC3-GFP in BALB/c immunocompetent mice), oxaliplatin or mitoxanthrone was inoculated systemically (i.v.). Tumors were withdrawn at 48 hours post-therapy and immunofluorescence stainings were performed on frozen sections of tumor tissues to visualize nuclei (in Hoechst blue), and autophagosomes in green (LC3-GFP). […] The lower panel is a graph summarizing enumeration of autophagosomes positive cells in 10 independent sections per tumor and animal (each dot represents one tumor). Statistical analyses were performed with Anova test (Fisher's exact method) with significant results at p<0.05.

The test system of data set [9] is MCA205. Put plainly: Tumor vaccination with MTX-treated MCA205 and rechallenge. Format: in vivo. The settings on record: s.c. injection of MTX treated MCA205 cells, WT mice (not athymic nude mice).
Experimental: MCA205 cells were treated with 2 μM MTX for 18 hrs, washed thoroughly and injected into left flank subcutaneously at 0.3 million/mouse. PBS was used as control. Mice were rechallenged with 5×10^4 live MCA205 cells in the right flank 7 days later. Tumor growth was monitored every 2-3 days.
The test system of data set [10] is MCA205 cells. Nature of the data set: In vivo anti-tumor vaccination with MitoC / Digoxin treated MCA205 cells. Also on record: species or system mice. The settings on record: 20 μM MitoC.
The subject of data set [11] is CT26 and MCA cells. Put plainly: CRT exposure in single or cotreated cells (MitoC, cardiac glycosides). Format: cell-based, mouse. The procedure: (B) CRT exposure was analysed in the cells that were single or cotreated as indicated by means of CRT surface staining and FACS quantification.
Data set [12] concerns U2OS cells. Nature of the data set: Analysis of surface exposed CRT (HaloTag ligand, anti-CRT immune staining).
Data set [13] deals with MCA205 cells. The settings on record: Martins I et al, Oncogene 2010; cited from earlier work.
The test system of data set [14] is U2OS cells. It counts as cell-based. The procedure: The data is depicted as representative images (A) and (B) normalized Bax-GFP granularity values.
The data represents mean±s.e.m. of quadruplicates from a representative experiment. […] 16 h after treatment, cell death was monitored by simultaneous staining with 3,3 dihexyloxacarbocyanine iodide (DiOC6(3)) and propidium iodide (PI), and the percentage of dying (DiOC6(3)^low PI^−, open bars) and dead (DiOC6(3)^low PI^+, closed bars) cells was determined by cytofluorometry.
Cell death was quantified by cytofluorometric analysis using a FACS Vantage (Becton Dickinson, Mountain View, USA) as described previously (REF). Thus, cells were stained with 40 nM 3,3 dihexyloxacarbocyanine iodide (DiOC6(3); Molecular Probes, Eugene, Oreg., USA) for 30 min at 37° C. and concomitantly with 1 μg/ml propidium iodide (PI; Sigma Aldrich) for 30 min at 37° C. to determine the mitochondrial transmembrane potential. Data were statistically evaluated using CellQuest Pro software (Becton Dickinson, Mountain View, USA).

The test system of data set [15] is MCA205 cells. Nature of the data set: In vivo anti-tumor vaccination with treated MCA205 cells (Example 3). The settings on record: MCA205, rechallenge with live cells.
Experimental: (F) MCA205 cells have been used for tumor vaccination in vivo. […] The mice have been rechallenged after 6 days with living cells and the tumor growth is depicted in the survival plot (n=10).
Tumor growth was evaluated for at least 50 days.
Where [16] appears, read: MTX at 8 days post-implantation.

Sequence of AHR (P35869 11-848, species assumed): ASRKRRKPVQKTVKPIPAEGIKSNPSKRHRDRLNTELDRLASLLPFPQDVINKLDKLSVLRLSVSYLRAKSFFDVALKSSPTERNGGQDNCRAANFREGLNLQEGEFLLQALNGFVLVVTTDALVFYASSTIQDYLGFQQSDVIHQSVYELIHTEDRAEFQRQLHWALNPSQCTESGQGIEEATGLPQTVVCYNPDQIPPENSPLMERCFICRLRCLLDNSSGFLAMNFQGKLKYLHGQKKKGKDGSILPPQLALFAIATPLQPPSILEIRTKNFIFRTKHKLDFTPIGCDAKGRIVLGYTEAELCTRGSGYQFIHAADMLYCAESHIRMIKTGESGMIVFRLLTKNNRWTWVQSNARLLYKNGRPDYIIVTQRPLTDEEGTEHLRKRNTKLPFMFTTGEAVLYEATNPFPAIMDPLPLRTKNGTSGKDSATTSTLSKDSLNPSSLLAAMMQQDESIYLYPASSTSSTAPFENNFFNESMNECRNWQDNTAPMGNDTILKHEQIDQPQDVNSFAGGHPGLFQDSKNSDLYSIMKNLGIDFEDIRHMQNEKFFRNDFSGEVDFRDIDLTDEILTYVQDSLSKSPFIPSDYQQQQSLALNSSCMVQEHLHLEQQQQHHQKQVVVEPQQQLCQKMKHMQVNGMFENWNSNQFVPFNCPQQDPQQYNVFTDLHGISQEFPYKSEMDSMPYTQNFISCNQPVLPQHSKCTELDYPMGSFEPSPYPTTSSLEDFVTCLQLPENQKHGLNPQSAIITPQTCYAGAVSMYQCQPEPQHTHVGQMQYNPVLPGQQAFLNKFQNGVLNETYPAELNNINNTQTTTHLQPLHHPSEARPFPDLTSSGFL

For `CCN(CC)c1ncnc2c1ncn2C1OC(COP(=O)(O)OP(=O)(O)C(Br)(Br)P(=O)(O)O)C(O)C1O` [ARL67156, 6-N,N-Diethyl-D-beta-gamma-dibromomethylene adenosine triphosphate], the “response of autophagy-deficient tumours to anthracycline chemotherapy with intratumoural apyrase inhibitor” value in data set [1] (tumours established for 8 days) is “defect is again overcome”. For the same molecule, the “immunogenicity of autophagy-deficient dying tumour cells with co-injected apyrase inhibitor” value in data set [2] was “defect in immunogenicity can be restored”.
Turning to `Cc1ccccc1N=Nc1ccc(NC(=O)c2ccnn2C)c(C)c1` [CH-223191, 2-methyl-2H-pyrazole-3-carboxylic acid (2-methyl-4-o-tolylazo-phenyl)-amide], in [3], the “concentration up to which no AHR agonist actions” value is above 100 µM. Moreover, the “effect on efficacy of DX on established cancers in vivo” value in data set [4] is listed as “markedly reduced the efficacy of DX”. Moreover, the “cell-autonomous effects on the tumor cells” value in data set [5] was “no cell-autonomous effects on the tumor cells”.
In the case of `O=C1c2c(O)ccc(O)c2C(=O)c2c(NCCNCCO)ccc(NCCNCCO)c21` [MTX, mitoxantrone], in [6], the “rank in screen for exposing CRT and emitting HMGB1 and ATP” value was “most potent in exposing CRT, and emitting HMGB1 and ATP”. In data set [7] (1 μM MTX, 150 μM CDDP, 300 μM OXP), the “CRT-GFP granularity (relocation to peripheral granular distribution)” value is “only observed after treatment of the cells with MTX or OXP”. The “redistribution of LC3-GFP in autophagosomes in tumors” value in data set [8] is “Redistribution of LC3-GFP in autophagosomes can be visualized post-therapy”. In addition, in data set [1] (setting [16]), the “growth of ATG5 and ATG7 deficient tumors under MTX” value is “not controlled by MTX therapy”; the “growth of CT26 WT tumors under MTX” value was “significantly respond”. Further, the “protection against rechallenge with live MCA205 tumor cells” value in data set [9] was “could protect WT mice”.
In the case of `CO[C@@]12[C@H](COC(N)=O)C3=C(C(=O)C(C)=C(N)C3=O)N1C[C@@H]1N[C@@H]12` [MitoC, mitomycin C], the “vaccinating effect, MitoC alone” value in data set [10] was “failed to confer any vaccinating effect”. In data set [11], the “CRT exposure, MitoC by its own” value is reported as “incapable of exposing CRT”.
Consider `C/C=C(/C)C(=O)O[C@H]1C(C)=C2[C@H]([C@@H]1OC(=O)CCCCCCC)[C@@](C)(OC(C)=O)C[C@H](OC(=O)CCC)[C@@]1(O)[C@H]2OC(=O)[C@@]1(C)O` [THAPS, thapsigargin], for which the “CRT-GFP granularity, CRT-HaloTag exposure, native CRT exposure, THAPS alone” value in data set [12] (in the absence of CDDP) was “comparably inefficient”. Also, the “CRT-GFP granularity, CRT-HaloTag exposure, native CRT exposure, THAPS with CDDP” value in data set [12] (in the presence of CDDP) is reported as “highly efficient in the presence of CDDP”. In addition, the “immunogenic cell death when combined with cisplatin” value in data set [13] is “could induce immunogenic cell death when combined with cisplatin”. Also, the “CRT-GFP granularity / CRT exposure in library screen in the presence vs absence of CDDP” value in [7] is “particularly efficient in inducing CRT-GFP granularity in the presence (but not in the absence) of CDDP”. The “CRT-GFP granularity / CRT exposure in library screen in the presence vs absence of CDDP” value in data set [7] (listed as thapsigargin) is reported as “the sole agent (out of 450 compounds) to induce CRT exposure in the presence of cisplatin but not in the absence of cisplatin”. Also, in data set [14], the cytotoxic effects result is reported as “exhibited no major cytotoxic effects” and the “effect on toxicity of CDDP” value was “did not increase the toxicity of CDDP”. Also, the “anticancer immune response, vaccine of dying cells generated with CDDP combined with THAPS” value in [15] is reported as “elicited an effective anticancer immune response in vivo”.
